Values quoted from earlier work as cited in patent US6297235A, “Triazolopyridazine derivatives for treating anxiety and enhancing cognition” (Merck Sharp & Dohme Ltd., priority 1997, dated 2001).

Tests used:
[1] = reported by McNamara and Skelton, Psychobiology, 21:101-108
[2] = in vivo

COC(=O)c1cc2c(cn1)[nH]c1ccccc12 [β-CCM]
spatial learning in the Morris watermaze [1]: enhanced spatial learning
proconvulsant or convulsant effect [2]: proconvulsant or convulsant
